Test [1] relates to AsPC-1/IκBα-ND cells. The experiment in a line: MTT cell growth inhibition, AsPC-1 with NFκB inactivated. The test is classed as cell-based. The settings on record: Homo sapiens, ASPC1, 72 h. The procedure:
FIG. 4. The anticancer activity of Orsaponin (OSW-1) is not affected by NFκB expression in pancreatic cancer cells. Human pancreatic cancer cells AsPC-1 with constitutive activation of NFκB or inactivation of NFκB by dominant negative IκBα (AsPC-1/IκBα-ND) were treated with the indicated concentrations of OSW-1 for 72 h. Cell growth inhibition was measured by MTT assay.
1. MTT Assays. For these assays either cancer cell lines were used. Alternatively, mononuclear cells from peripheral blood samples of CLL patients or normal donors were separated by Ficoll Hipaque fractionation and resuspended in DMEM complete medium. Malignant cells from various human cell lines (usually at 5×10^4 cells/ml) or mononuclear cells from peripheral blood of leukemia patients and healthy donors (1×10^6 cells/ml) were incubated in either αMEM or RPMI 1640 with or without various concentrations of OSW-1 in the range of 0-10 nM. Each experimental condition was done in triplicate. After the indicated number of days (usually 3 days or 72 hours) of exposure to OSW-1, cell survival was assessed by the addition of the MTT dye to the wells. […] Survival of cells under orsaponin treatment was evaluated as a percentage of control cell growth. […]
OSW-1 Inhibits Growth of Pancreatic Cancer Cells Irrespective of NFκB Expression. […] Cell growth inhibition was measured by MTT assay. […]

Test [2] concerns ovarian cancer SKOV3 cells. In words: MTT cell growth inhibition, SKOV3. The class given is cell-based. Conditions: Homo sapiens, SK-OV-3, SKOV3, 72 h. The procedure:
FIG. 5. Effect of Orsaponin (OSW-1) on cell growth in human ovarian cancer cells (SKOV3). Human ovarian cancer SKOV3 cells were treated with the indicated concentrations of OSW-1 for 72 h. Cell growth inhibition was measured by the MTT assay. The IC50 value is approximately 0.2 nM under the experimental conditions.
1. MTT Assays. For these assays either cancer cell lines were used. Alternatively, mononuclear cells from peripheral blood samples of CLL patients or normal donors were separated by Ficoll Hipaque fractionation and resuspended in DMEM complete medium. […] After the indicated number of days (usually 3 days or 72 hours) of exposure to OSW-1, cell survival was assessed by the addition of the MTT dye to the wells. […] Survival of cells under orsaponin treatment was evaluated as a percentage of control cell growth. […]
OSW-1 Inhibits Growth of Ovarian Cancer Cells. […] Human ovarian cancer SKOV3 cells were treated with 0-10 nM OSW-1 for 72 h and cell growth inhibition was measured by the MTT assay.
The effect of 17-deoxyorsaponin in human ovarian cancer cells was determined. […] Cell growth inhibition was measured by MTT assay (FIG. 17). […] ML-1 leukemia cells were incubated with various concentrations of 17-deoxyorsaponin for 72 h and cell growth inhibition was measured using the MTT assay (FIG. 18).

Test [3] concerns HCT116 p53+/+ colon cancer cells. In words: Colony formation assay, HCT116 p53+/+. The class given is cell-based, human. The procedure: FIG. 6. Effect of OSW-1 on cell survival in human colon carcinoma cells. Human colon cancer cells with wild-type p53 (HCT116 p53+/+) and p53-null (HCT116 p53−/−) were treated with the indicated concentrations of OSW-1, and cell survival was measured by colony formation assay.
OSW-1 Inhibits Growth of Human Colon Cancer Cells. […] The HCT116 colon cancer cells with wild-type p53 (p53+/+) and p53-null (p53−/−) were treated with the various concentrations of orsaponin (OSW-1), and cell survival was measured by colony formation assay.

Test [4] relates to C6F cells. In words: Mitochondrial transmembrane potential (rhodamine-123), C6F. The class given is cell-based, human. Conditions: 0.5 nM. The procedure:
FIG. 10. Effect of Orsaponin (OSW-1) on Mitochondrial transmembrane potential HL-60 cells. The parental HL-60 line and its mutant with mitochondrial respiration defect, clone C6F, were incubated with 0.5 nM OSW-1 for the indicated times. Change in mitochondrial transmembrane potential was measured by cytometry analysis, using rhodamine-123 as a potential-sensitive fluorescent dye.
3. Analysis of the Mitochondrial Transmembrane Potential. To evaluate the role of mitochondrial respiration in the cytotoxicity of OSW-1, changes in the potential of mitochondrial membrane were analyzed. Following the treatment of cells with OSW-1 for different time periods, cells were incubated with rhodamine-123 which is a potential-sensitive dye. Cytometric analysis was used to record changes in mitochondrial potential. […]
The effect of OSW-1 on mitochondrial transmembrane potential in HL-60 cells and C6F cells was also analyzed by incubating the cells with 0.5 nM OSW-1 for the 4, 16 and 24 hours. Change in mitochondrial transmembrane potential was measured by flow cytometry analysis, using rhodamine-123 as a potential-sensitive fluorescent dye and are depicted in FIG. 10.

The test system of test [5] is human ovarian cancer SKOV3 cells. The experiment in a line: Survival of nude mice inoculated i.p. with SKOV3. The test is classed as in vivo. Conditions: i.p. 10 μg/kg/day, 5 days/week for two weeks. On the procedure:
FIG. 12. Nude mice were inoculated with human ovarian cancer SKOV3 cells (2×10^6/mouse, i.p., 10 mice/group). Drug treatment started on day 6 after tumor inoculation. OSW-1 was given by i.p. injection, 10 μg/kg/day, 5 days/week for two weeks.
Thus, nude mice were inoculated with human ovarian cancer SKOV3 cells at a concentration of 2×10^6/mouse, by the intraperitoneal route (i.p.) with 10 mice/group. Treatment with OSW-1 was started on day 6 after tumor inoculation. The control group was treated with saline. OSW-1 was given by i.p. injection, 10 μg/kg/day, 5 days/week for two weeks. […] When severe tumor burden and moribund signs appeared, euthanasia for the affected animal was performed according to IACUC standards.

Test [6] concerns human promyelocytic leukemia HL-60 cells. The settings on record: Mimaki et al., 1997; read-out: IC50, cytostatic activity against HL-60; cited from earlier work.

As a reminder, the IC50 is the point on the concentration scale where inhibition reaches its midpoint. For `COc1ccc(C(=O)OC2C(OC3C(O)COC(O[C@H]4C[C@H]5[C@@H]6CC=C7C[C@@H](O)CC[C@]7(C)[C@H]6CC[C@]5(C)[C@@]4(O)[C@H](C)C(=O)CCC(C)C)C3OC(C)=O)OCC(O)C2O)cc1` (stereo partly drawn) [OSW-1, 3β, 16β, 17 α-trihydroxycholost-5-en-22-one 16-O-(2-O-4-methoxybenzoyl-β-D-xylopyranosyl)-(1->3)-(2-O-acetyl-α-L-arabinopyranoside)], the half-maximal inhibitory concentration (IC50) is ~0.3 nM in test [1], ~0.2 nM in test [2] and 0.1 to 0.3 nM in test [6]. For the same molecule, the “cell survival, colony formation” value in test [3] is “effective in killing human colon cancer cells regardless of p53 expression status”. Further, in test [4], the “change in mitochondrial transmembrane potential” value is “did not show significant loss of mitochondrial transmembrane potential”. Besides, the Survival % in test [5] (30 days) is 100%; in test [5] (60 days) it was 50%.

These data come from US20050004044A1, “Use of orsaponin [3beta, 16beta, 17 alpha-trihydroxycholost-5-en-22-one 16-0-(2-0-4-methoxybenzoyl-beta-D-xylopyranosyl)-(1->3)-(2-0-acetyl-alpha-L-arabinopyranoside)] or OSW-1 and its derivatives for cancer therapeutics” (priority 2003, published 2005).
